Each compound was assayed against T1, DCAF1 WD40 domain (residues 1077-1390) (Homo sapiens, UniProt Q9Y4B6) (assay: DCAF1 binding assay by SPR (Biacore 8K+), DCAF1-3 KD). Details: 25 °C, read-out: DCAF1-3 SPR (KD).
T1 construct: DCAF1 WD40 domain (residues 1077-1390)
T1 sequence (Q9Y4B6 1077-1390): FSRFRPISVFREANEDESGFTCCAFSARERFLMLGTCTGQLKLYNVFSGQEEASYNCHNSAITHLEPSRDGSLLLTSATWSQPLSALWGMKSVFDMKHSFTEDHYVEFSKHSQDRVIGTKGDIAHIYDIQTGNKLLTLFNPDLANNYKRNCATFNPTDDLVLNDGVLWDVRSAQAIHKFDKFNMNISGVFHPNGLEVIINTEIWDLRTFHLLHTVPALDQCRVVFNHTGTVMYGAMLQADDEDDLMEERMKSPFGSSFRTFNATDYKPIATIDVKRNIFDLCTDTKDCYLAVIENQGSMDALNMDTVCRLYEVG
With `NC(=O)C[C@H](NC(=O)c1ccc(N)nc1-c1ccccc1F)c1cccc(Cl)c1` [I-588] the Kd was 10 to 100 µM. With `NC(=O)C[C@H](NC(=O)c1cnc(N)cc1-c1ccccc1F)c1cccc(Cl)c1` [I-589] the Kd was > 200 µM. `NC(=O)C[C@H](NC(=O)c1cn[nH]c1-c1c(F)cccc1C1CC1)c1cccc(Cl)c1` [I-590] was tested, and the Kd was < 10 µM. In the case of `C#Cc1cccc(F)c1-c1[nH]ncc1C(=O)N[C@@H](CC(N)=O)c1cccc(Cl)c1` [I-591], the Kd is reported as < 10 µM. In the case of `Cc1cccc(F)c1-c1c[nH]cc1C(=O)N[C@@H](CC(N)=O)c1cccc(Cl)c1` [I-592], the Kd is reported as < 10 µM. `Oc1ccc(N2CCC[C@@H](Nc3cc(N4CCCCC4)ccn3)C2)cc1` [I-593] was tested, and the Kd was < 10 µM. In the case of `NC(=O)C[C@H](NC(=O)c1c[nH]c(-c2ccccc2)c1-c1ccccc1F)c1cccc(Cl)c1` [I-594], the Kd is reported as < 10 µM. With `Cc1cccc(C)c1-c1[nH]ncc1C(=O)N[C@@H](CC(N)=O)c1cccc(Cl)c1` [I-595] the Kd was < 10 µM. `COCCN(c1cc(N2CCCCC2)ccn1)[C@@H]1CCCN(c2cccc(F)c2)C1` [I-596] showed a Kd of 10 to 100 µM. In the case of `Fc1cccc(N2CCC[C@@H](Nc3cc(N4CCCCCC4)ccn3)C2)c1` [I-597], the Kd is reported as < 10 µM. In the case of `N#Cc1[nH]cc(C(=O)N[C@@H](CC(N)=O)c2cccc(Cl)c2)c1-c1ccccc1F` [I-598], the Kd is reported as < 10 µM. `NC(=O)C[C@H](NC(=O)c1c[nH]c(C(N)=O)c1-c1ccccc1F)c1cccc(Cl)c1` [I-599] was tested, and the Kd was < 10 µM. In the case of `NC(=O)C[C@H](NC(=O)c1c[nH]c(-c2ccc[nH]2)c1-c1ccccc1F)c1cccc(Cl)c1` [I-600], the Kd is reported as < 10 µM. `Cc1c(F)ccc(F)c1-c1[nH]ncc1C(=O)N[C@@H](CC(N)=O)c1cccc(Cl)c1` [I-601] was tested, and the Kd was < 10 µM. For `NC(=O)C[C@H](NC(=O)c1cn[nH]c1-c1ccccc1F)c1ccccc1F` [I-602], the Kd was < 10 µM. For `NC(=O)C[C@H](NC(=O)c1c[nH]c(C(=O)c2ccccc2)c1-c1ccccc1F)c1cccc(Cl)c1` [I-603], the Kd was < 10 µM. With `Fc1cccc(N2CCC[C@@H]3[C@H]2CCN3c2cc(N3CC4CCC(C4)C3)ccn2)c1` [I-604] the Kd was < 10 µM. For `Fc1cccc(N2CCC[C@H]3[C@@H]2CCN3c2cc(N3CC4CCC(C4)C3)ccn2)c1` [I-605], the Kd was 10 to 100 µM. `Cc1cccc(F)c1-c1c(C(=O)N[C@@H](CC(N)=O)c2cccc(Cl)c2)c[nH]c1C(=O)C1CCCCC1` [I-606] was tested, and the Kd was < 10 µM. `NC(=O)CC1(NC(=O)c2cn[nH]c2-c2ccccc2F)CCc2ccc(Cl)cc21` (stereo not shown) [I-607] was tested, and the Kd was 10 to 100 µM. In the case of `Fc1cccc(N2CCC[C@@H](Nc3cc(C4CCOCC4)[nH]n3)C2)c1` [I-608], the Kd is reported as > 200 µM. `Fc1cccc(N2CCC[C@@H](Nc3cc(C4=CCOCC4)[nH]n3)C2)c1` [I-609] was tested, and the Kd was > 200 µM. `CC1=C(c2[nH]ncc2C(=O)N[C@@H](CC(N)=O)c2cccc(Cl)c2)CCCC1` [I-610] was tested, and the Kd was < 10 µM. With `CC1CC=C(c2[nH]ncc2C(=O)N[C@@H](CC(N)=O)c2cccc(Cl)c2)CC1` (stereo partly shown) [I-611] the Kd was < 10 µM. `O=C(c1cc(N2CCCCC2)ccn1)[C@@H]1CCCN(c2cccc(F)c2)C1` [I-612] was tested, and the Kd was > 200 µM. `O=C(c1cc(N2CCCCC2)ccn1)[C@H]1CCCN(c2cccc(F)c2)C1` [I-613] gave a Kd of 10 to 100 µM. Compound `CN(c1ccccc1)c1ccnc(N[C@@H]2CCCN(c3cccc(F)c3)C2)c1` [I-614] has a Kd of 10 to 100 µM. `COCCOCCOCCC(c1cc(N2CC3CCC(C3)C2)ccn1)[C@@H]1CCCN(c2cccc(F)c2)C1` (stereo partly shown) [I-615] was tested, and the Kd was < 10 µM. In the case of `Fc1cccc(N2CCC[C@@H](Nc3cc(N4C5CCCC4C5)ccn3)C2)c1` [I-616], the Kd is reported as < 10 µM. In the case of `Fc1cccc(N2CCC[C@@H](Nc3cc(N4C5CCCC4CC5)ccn3)C2)c1` [I-617], the Kd is reported as < 10 µM. `Fc1cccc(N2CCC[C@@H](Nc3cc(N4CC5CCC(CC5)C4)ccn3)C2)c1` [I-618] was tested, and the Kd was < 10 µM. For `NC(=O)C[C@H](NC(=O)c1cn[nH]c1C(=O)c1ccccc1)c1cccc(Cl)c1` [I-619], the Kd was < 10 µM. `C=CC(=O)NCCCN1CCN(c2ccnc(N[C@@H]3CCCN(c4cccc(F)c4)C3)c2)CC1` [I-621] was tested, and the Kd was 100 to 200 µM. For `Cc1cccc(F)c1-c1c(C(=O)N[C@@H](CC(N)=O)c2cccc(Cl)c2)c[nH]c1C(=O)Cc1ccccc1` [I-622], the Kd was < 10 µM. In the case of `Fc1cccc(N2CCC[C@@H]3[C@H]2CCN3c2cc(N3CC4CC(C4)C3)ccn2)c1` [I-623], the Kd is reported as < 10 µM. `Fc1cccc(N2CCC[C@H]3[C@@H]2CCN3c2cc(N3CC4CC(C4)C3)ccn2)c1` [I-624] was tested, and the Kd was > 200 µM. `Cc1ccc(C(=O)c2[nH]cc(C(=O)N[C@@H](CC(N)=O)c3cccc(Cl)c3)c2-c2c(C)cccc2F)cc1` [I-625] was tested, and the Kd was < 10 µM. With `Cc1ccccc1C(=O)c1[nH]cc(C(=O)N[C@@H](CC(N)=O)c2cccc(Cl)c2)c1-c1c(C)cccc1F` [I-626] the Kd was < 10 µM. For `Cc1cccc(C(=O)c2[nH]cc(C(=O)N[C@@H](CC(N)=O)c3cccc(Cl)c3)c2-c2c(C)cccc2F)c1` [I-627], the Kd was < 10 µM. `O=C(O)C1C(Nc2cc(N3CCOCC3)ccn2)CCCN1c1cccc(F)c1` (stereo not shown) [I-628] showed a Kd of 10 to 100 µM. For `NC(=O)C[C@H](NC(=O)c1c[nH]c(Nc2ccccc2)c1-c1c(F)cccc1F)c1cccc(Cl)c1` [I-629], the Kd was < 10 µM. With `NC(=O)C[C@H](NC(=O)c1cn[nH]c1-c1c(F)cccc1C(F)(F)F)c1cccc(Cl)c1` [I-630] the Kd was < 10 µM. For `Fc1cccc(N2CCC[C@@H](Cc3cc(N4CCOCC4)[nH]n3)C2)c1` [I-631], the Kd was > 200 µM. In the case of `Fc1cccc(N2CCC[C@H](Cc3cc(N4CCOCC4)[nH]n3)C2)c1` [I-632], the Kd is reported as > 200 µM. In the case of `C=CC(=O)NCCCCN1CCN(c2ccnc(N[C@@H]3CCCN(c4cccc(F)c4)C3)c2)CC1` [I-633], the Kd is reported as 10 to 100 µM. Work on `C=CC(=O)NCC1CCCN(c2ccnc(N[C@@H]3CCCN(c4cccc(F)c4)C3)c2)C1` (stereo partly shown) [I-634] yielded a Kd of 10 to 100 µM. `Fc1cccc(N2CCC[C@@H]3[C@H]2CCN3c2cc(N3CCCCCC3)ccn2)c1` [I-635] was tested, and the Kd was 10 to 100 µM. `Fc1cccc(N2CCC[C@H]3[C@@H]2CCN3c2cc(N3CCCCCC3)ccn2)c1` [I-636] was tested, and the Kd was < 10 µM. In the case of `Cc1cccc(F)c1-c1c(C(=O)N[C@@H](CC(N)=O)c2cccc(Cl)c2)c[nH]c1C#N` [I-637], the Kd is reported as < 10 µM. With `CCc1cccc([C@H](CC(N)=O)NC(=O)c2cn[nH]c2-c2ccccc2F)c1` [I-638] the Kd was > 200 µM. `CCc1cccc([C@@H](CC(N)=O)NC(=O)c2cn[nH]c2-c2ccccc2F)c1` [I-639] showed a Kd of 100 to 200 µM. `Fc1cccc(N2CCC[C@@H](Nc3cc(N4CCC5CCC4C5)ccn3)C2)c1` (stereo partly shown) [I-640] was tested, and the Kd was 10 to 100 µM. For `C=CC(=O)N1C[C@H](c2ccc(Br)cc2)[C@@H]1C(=O)N1CCN(c2ccnc(N[C@@H]3CCCN(c4cccc(F)c4)C3)c2)CC1` [I-641], the Kd was 10 to 100 µM. Work on `C=CC(=O)N1CCC2(CC1)CCN(c1ccnc(N[C@@H]3CCCN(c4cccc(F)c4)C3)c1)CC2` [I-642] yielded a Kd of 10 to 100 µM. `C[C@H]1CCCCN1c1ccnc(N2CC[C@@H]3[C@H]2CCCN3c2cccc(F)c2)c1` [I-643] was tested, and the Kd was < 10 µM. `C[C@H]1CCCCN1c1ccnc(N2CC[C@H]3[C@@H]2CCCN3c2cccc(F)c2)c1` [I-644] showed a Kd of 10 to 100 µM. `Fc1cccc(N[C@@H]2CCCN(c3cc(N4CCCCC4)ccn3)C2)c1` [I-645] was tested, and the Kd was > 200 µM. For `O=c1[nH]cc(C2CCOCC2)cc1N[C@@H]1CCCN(c2cccc(F)c2)C1` [I-646], the Kd was 10 to 100 µM. Work on `O=c1[nH]cc(C2=CCOCC2)cc1N[C@@H]1CCCN(c2cccc(F)c2)C1` [I-647] yielded a Kd of 10 to 100 µM. For `Cc1cccc(F)c1-c1c(C(=O)N[C@@H](CC(N)=O)c2cccc(Cl)c2)c[nH]c1C(=O)c1ncccn1` [I-648], the Kd was < 10 µM. For `NCCOCCOCCOCCC1CCN(c2ccnc(N3CC[C@@H]4[C@H]3CCCN4c3cccc(F)c3)c2)CC1` [I-649], the Kd was < 10 µM. `NCCOCCOCCOCCOCCC1CCN(c2ccnc(N3CC[C@@H]4[C@H]3CCCN4c3cccc(F)c3)c2)CC1` [I-650] was tested, and the Kd was > 200 µM. `NCCOCCOCCOCCOCCOCCC1CCN(c2ccnc(N3CC[C@@H]4[C@H]3CCCN4c3cccc(F)c3)c2)CC1` [I-651] was tested, and the Kd was < 10 µM. `C=CC(=O)NC1CC2(CCN(c3ccnc(N[C@@H]4CCCN(c5cccc(F)c5)C4)c3)CC2)C1` [I-652] was tested, and the Kd was < 10 µM. For `Cc1c(F)ccc(F)c1-c1c(C(=O)N[C@@H](CC(N)=O)c2cccc(Cl)c2)c[nH]c1C(=O)c1ccccc1` [I-653], the Kd was < 10 µM. With `COCCC1C2CCC1CN(c1ccnc(N[C@@H]3CCCN(c4cccc(F)c4)C3)c1)C2` (stereo partly shown) [I-654] the Kd was < 10 µM. For `C=CC(=O)N1CCN(c2ccnc(N[C@@H]3CCCN(c4cccc(F)c4)C3)c2)CC1C(F)(F)F` (stereo partly shown) [I-655], the Kd was > 200 µM. In the case of `Cc1cccc(F)c1-c1c(C(=O)N[C@@H](CC(N)=O)c2cccc(Cl)c2)c[nH]c1-c1ccccn1` [I-656], the Kd is reported as < 10 µM. `C=CC(=O)NC1CCC2(CC1)CCN(c1ccnc(N[C@@H]3CCCN(c4cccc(F)c4)C3)c1)CC2` [I-657] was tested, and the Kd was < 10 µM. With `CC1(C)CCCCN1c1ccnc(N[C@@H]2CCCN(c3cccc(F)c3)C2)c1` [I-658] the Kd was 10 to 100 µM. With `Fc1cccc(N2CC[C@@]3(CCN(c4cc(N5CCCCC5)ccn4)C3)C2)c1` [I-659] the Kd was 10 to 100 µM. In the case of `CN(c1cccc(F)c1)C1CCCN(c2cc(N3CCCCC3)ccn2)C1` (stereo not shown) [I-660], the Kd is reported as > 200 µM. `NCCOCCOCCOCCOCCOCCOCCC1CCN(c2ccnc(N3CC[C@@H]4[C@H]3CCCN4c3cccc(F)c3)c2)CC1` [I-661] was tested, and the Kd was < 10 µM. In the case of `NCCCCCCCCCCCCCCCCCC(=O)c1[nH]cc(C(=O)N[C@@H](CC(N)=O)c2cccc(Cl)c2)c1-c1ccccc1F` [I-662], the Kd is reported as > 200 µM. `NCCCCCCCCCCCCCCC(=O)c1[nH]cc(C(=O)N[C@@H](CC(N)=O)c2cccc(Cl)c2)c1-c1ccccc1F` [I-663] was tested, and the Kd was > 200 µM. Work on `C=CC(=O)NCCC1CCCN(c2ccnc(N[C@@H]3CCCN(c4cccc(F)c4)C3)c2)C1` (stereo partly shown) [I-664] yielded a Kd of 10 to 100 µM. `C=CC(=O)NCC1CCN(c2ccnc(N3CC[C@@H]4[C@H]3CCCN4c3cccc(F)c3)c2)CC1` [I-665] showed a Kd of 10 to 100 µM. With `C=CC(=O)NCCC1CCN(c2ccnc(N3CC[C@@H]4[C@H]3CCCN4c3cccc(F)c3)c2)CC1` [I-666] the Kd was > 200 µM. `Fc1cccc(N2CC[C@@H]3CN(c4cc(N5CCCCC5)ccn4)C[C@@H]32)c1` [I-667] showed a Kd of 10 to 100 µM. Work on `Fc1cccc(N2CCC[C@@H]3CN(c4cc(N5CCCCC5)ccn4)C[C@@H]32)c1` [I-668] yielded a Kd of 10 to 100 µM. In the case of `O=C(Nc1nc2c(s1)CCCC2)[C@@H]1CCCN(c2cccc(F)c2)C1` [I-669], the Kd is reported as > 200 µM. `NCCCCCCCCCCCCCCCCCCCCC(=O)c1[nH]cc(C(=O)N[C@@H](CC(N)=O)c2cccc(Cl)c2)c1-c1ccccc1F` [I-670] was tested, and the Kd was > 200 µM.

Source: patent publication US20260373266A1, “PROTEIN DEGRADERS AND USES THEREOF” (KYMERA THERAPEUTICS, INC., priority 2022, published 2026)
